We go through 15 compounds from ChEMBL document CHEMBL5120911, “Suncheonosides E-M and Benzothioate Derivatives from the Marine-Derived Streptomyces sp. ZSN77” (J Nat Prod, 2022).

Usually IC50 stands for the point on the concentration scale where inhibition reaches its midpoint.

Each structure is given as a SMILES string. Where a name gives a salt, the structure may show the parent alone.

Assay type in all cases: functional, cell-based
One assay has as its system MDA-MB-231. The experiment in a line: Cytotoxicity against human MDA-MB-231 cells assessed as reduction in cell viability incubated for 72 hrs by SRB assay. The conditions noted are these: MDA-MB-231, 72 h. A general note: The SRB assay estimates cell density from bound dye.
The test system of the next assay is PC-3. The experiment in a line: Cytotoxicity against human PC-3 cells assessed as reduction in cell viability incubated for 72 hrs by SRB assay. The conditions noted are these: PC-3, 72 h.
The next assay deals with BV-2. The experiment in a line: Antiinflammatory activity in mouse BV-2 cells assessed as inhibition of LPS-induced NO production pretreated for 3 hrs followed by LPS stimulation measured after 24 hrs by microplate reader assay. The conditions noted are these: dose 2.5-10 µM, time 27.0 hrs, DDE = dose-dependent effect.
The test system of a further assay is HCT-116. The experiment in a line: Cytotoxicity against human HCT-116 cells assessed as reduction in cell viability incubated for 72 hrs by SRB assay. The conditions noted are these: HCT-116, 72 h.

As for `COc1cccc2c1C(=O)c1c(O)c3c(c(O)c1C2=O)C[C@@](O)(C(=O)CO)C[C@@H]3O[C@H]1C[C@H](N)[C@H](O)[C@H](C)O1` [DOXORUBICIN HYDROCHLORIDE], the IC50 in the assay on MDA-MB-231 and in the assay on PC-3 was 0.4 µM in each case.
As for `COc1c(C)c(O)c(C)c(C(C)C)c1C(=O)SC`, the figures for the 50% inhibitory concentration (IC50) with MDA-MB-231, with PC-3 and in the assay with HCT-116 were 36 µM, above 40 µM and above 40 µM, respectively. Also, the Activity result in the assay with BV-2 was “Dde”.
With `CSC(=O)c1c(O[C@@H]2O[C@H](CO)[C@@H](O)[C@H](O)[C@H]2O)c(C)c(OC(=O)c2c(O)c(C)c(O)c(C)c2C(C)C)c(C)c1C(C)C`, the IC50 in the assay with MDA-MB-231 is 11 µM; with HCT-116, above 40 µM.
Consider `CCc1c(C)c(O)c(C)c(O[C@@H]2O[C@H](COC(C)=O)[C@@H](O)[C@H](O)[C@H]2O)c1C(=O)SC`, for which the IC50 with MDA-MB-231 is 16 µM; with HCT-116, above 40 µM.
On to `COC(=O)c1c(O)c(C)c(O)c(C)c1C(C)C`, for which the IC50 in the assay with MDA-MB-231 was above 40 µM; with PC-3, above 40 µM; with HCT-116, 7.3 µM.
As to `CSC(=O)c1c(C(C)C)cc(O)c(C)c1O[C@@H]1O[C@H](CO)[C@@H](O)[C@H](O)[C@H]1O`, the IC50 in the assay with MDA-MB-231, in the assay with PC-3 and with HCT-116 was above 40 µM each time.
On to `CCc1c(C)c(O)c(C)c(O)c1C(=O)SC`, for which the IC50 in the assay on MDA-MB-231, with PC-3 and in the assay with HCT-116 was above 40 µM in each case.
On to `Cc1c(O)c(C)c(C(C)C)c(O[C@@H]2O[C@H](CO)[C@@H](O)[C@H](O)[C@H]2O)c1O`, for which the IC50 with MDA-MB-231 is above 40 µM; in the assay on PC-3, 4.1 µM; in the assay with HCT-116, above 40 µM. In the assay on BV-2, the Activity entry is “Dde”.
`CSC(=O)c1c(O)c(C)c(O)c(C)c1C(C)C`: the IC50 in the assay with MDA-MB-231 is above 40 µM; with HCT-116, 3.9 µM. Also, the Activity result in the assay with BV-2 was “Dde”.
`Cc1c(O)cc(C(C)C)c(C)c1O`: the IC50 in the assay with MDA-MB-231, in the assay on PC-3 and in the assay with HCT-116 was above 40 µM each time.
On to `CCc1c(O)c(C)c(O[C@@H]2O[C@H](CO)[C@@H](O)[C@H](O)[C@H]2O)c(C(=O)SC)c1C(C)C`, for which the IC50 in the assay on MDA-MB-231, in the assay with PC-3 and with HCT-116 was above 40 µM throughout.
With `CSC(=O)c1c(O[C@@H]2O[C@H](CO)[C@@H](O)[C@H](O)[C@H]2O)c(C)c(O)c(C)c1C(C)C`, the half-maximal inhibitory concentration (IC50) in the assay with MDA-MB-231, in the assay with PC-3 and in the assay with HCT-116 was above 40 µM throughout. Moreover, the Activity result in the assay on BV-2 is “Dde”.
`CSC(=O)c1c(O[C@@H]2O[C@H](COC(C)=O)[C@@H](O)[C@H](O)[C@H]2O)c(C)c(O)c(C)c1C(C)C`: the IC50 in the assay with MDA-MB-231 and with HCT-116 was above 40 µM throughout.
Regarding `CSC(=O)c1c(C)c(C)c(O)c(C)c1O[C@@H]1O[C@H](CO)[C@@H](O)[C@H](O)[C@H]1O`, the IC50 in the assay on MDA-MB-231, in the assay on PC-3 and with HCT-116 was above 40 µM throughout.
On to `CCc1c(C)c(O)c(C)c(O[C@@H]2O[C@H](CO)[C@@H](O)[C@H](O)[C@H]2O)c1C(=O)SC`, for which the IC50 in the assay with MDA-MB-231, in the assay with PC-3 and in the assay with HCT-116 was above 40 µM each time. Besides, in the assay on BV-2, the Activity entry is “Dde”.
